From publication PMC10150366, “Discovery of an In Vivo Chemical Probe for BCL6 Inhibition by Optimization of Tricyclic Quinolinones” (Journal of Medicinal Chemistry, 2023)

Experiments:
[1] = molecular target: CNR1 (Homo sapiens, UniProt P21554); assay: SAFETYscan cAMP CNR1 Agonist; assay type: cell-based
Text: (§1) Supplement jm3c00155_si_002.xlsx, sheet "SAFETYScan" | column: RC50 (uM); Max Response

[2] = molecular target: nAChR(a4/b2) (Homo sapiens, UniProt P17787+P43681); assay: SAFETYscan Ion Channel nAChR(a4/b2) Opener; assay type: cell-based
Text: as §1

[3] = molecular target: T1, CCKAR (Homo sapiens, UniProt P32238); assay: SAFETYscan Calcium Flux CCKAR Antagonist; assay type: cell-based
T1 sequence (P32238 1-428): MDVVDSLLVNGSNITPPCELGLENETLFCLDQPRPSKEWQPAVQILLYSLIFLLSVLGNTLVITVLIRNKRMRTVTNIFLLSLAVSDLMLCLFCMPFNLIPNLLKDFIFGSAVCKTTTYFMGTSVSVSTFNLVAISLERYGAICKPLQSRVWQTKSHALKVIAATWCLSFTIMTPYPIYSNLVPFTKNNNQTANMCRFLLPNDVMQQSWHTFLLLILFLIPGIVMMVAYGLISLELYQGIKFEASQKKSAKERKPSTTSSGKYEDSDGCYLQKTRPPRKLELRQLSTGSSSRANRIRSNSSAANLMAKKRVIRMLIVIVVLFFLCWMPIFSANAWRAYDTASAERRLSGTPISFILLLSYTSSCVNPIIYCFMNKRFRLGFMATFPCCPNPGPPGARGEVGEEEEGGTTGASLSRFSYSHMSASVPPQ
Text: as §1

[4] = molecular target: CHRM3 (Homo sapiens, UniProt P20309); assay: SAFETYscan Calcium Flux CHRM3 Agonist; assay type: cell-based
Text: as §1

[5] = molecular target: CAV1.2 (Homo sapiens, UniProt Q13936); assay: in vitro; assay type: cell-based
Text: as §1

[6] = molecular target: AVPR1A (Homo sapiens, UniProt P37288); assay: SAFETYscan Calcium Flux AVPR1A Agonist; assay type: cell-based
Text: as §1

[7] = molecular target: ADRB2 (Homo sapiens, UniProt P07550); assay: SAFETYscan cAMP ADRB2 Agonist; assay type: cell-based
Text: as §1

[8] = molecular target: HTR2A (Homo sapiens, UniProt P28223); assay: SAFETYscan Calcium Flux HTR2A Agonist; assay type: cell-based
Text: as §1

[9] = molecular target: NET (Homo sapiens, UniProt P23975); assay: SAFETYscan Transporter NET Blocker; assay type: cell-based
Text: as §1

[10] = molecular target: T2, OPRD1 (Homo sapiens, UniProt P41143); assay: SAFETYscan cAMP OPRD1 Agonist; assay type: cell-based
Text: as §1

[11] = molecular target: OPRK1 (Homo sapiens, UniProt P41145); assay: SAFETYscan cAMP OPRK1 Agonist; assay type: cell-based
Text: as §1

[12] = molecular target: kinase panel (468); assay: KINOMEscan scanMAX kinase panel (468); assay type: binding; conditions: for Percent Control: 10000 nM
[13] = molecular target: kinase panel (468) (Homo sapiens, UniProt P00519, H396P); assay: KINOMEscan scanMAX kinase panel (468); assay type: binding
[14] = molecular target: T1, CCKAR; assay: SAFETYscan Calcium Flux CCKAR Agonist; assay type: cell-based
Text: as §1

[15] = molecular target: KvLQT1/minK (Homo sapiens, UniProt P51787); assay: SAFETYscan Ion Channel KvLQT1/minK Opener; assay type: cell-based
Text: as §1

[16] = molecular target: HTR2B (Homo sapiens, UniProt P41595); assay: SAFETYscan Calcium Flux HTR2B Antagonist; assay type: cell-based
Text: as §1

[17] = molecular target: HTR1B (Homo sapiens, UniProt P28222); assay: SAFETYscan cAMP HTR1B Antagonist; assay type: cell-based
Text: as §1

[18] = molecular target: NAV1.5 (Homo sapiens, UniProt Q14524); assay: SAFETYscan Ion Channel NAV1.5 Blocker; assay type: cell-based
Text: as §1

[19] = molecular target: T2, OPRD1; assay: SAFETYscan cAMP OPRD1 Antagonist; assay type: cell-based
Text: as §1

[20] = molecular target: DAT (Homo sapiens, UniProt Q01959); assay: SAFETYscan Transporter DAT Blocker; assay type: cell-based
Text: as §1

[21] = molecular target: DRD2S (Homo sapiens, UniProt P14416); assay: SAFETYscan cAMP DRD2S Agonist; assay type: cell-based
Text: Supplement jm3c00155_si_002.xlsx, sheet "SAFETYScan" | column: RC50 (uM); Hill; Max Response

T2 sequence (P41143 whole entry): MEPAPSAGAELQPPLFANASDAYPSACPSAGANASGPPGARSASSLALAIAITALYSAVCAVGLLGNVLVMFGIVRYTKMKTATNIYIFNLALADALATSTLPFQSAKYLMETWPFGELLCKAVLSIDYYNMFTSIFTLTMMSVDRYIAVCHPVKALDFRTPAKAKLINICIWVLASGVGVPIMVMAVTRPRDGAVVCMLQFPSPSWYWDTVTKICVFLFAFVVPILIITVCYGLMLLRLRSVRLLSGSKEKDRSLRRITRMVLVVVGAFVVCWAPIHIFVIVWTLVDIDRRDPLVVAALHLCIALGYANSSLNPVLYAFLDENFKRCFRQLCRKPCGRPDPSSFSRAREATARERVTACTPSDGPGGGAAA
Sequence of DRD2S (P14416 1-414 isoform P14416-2): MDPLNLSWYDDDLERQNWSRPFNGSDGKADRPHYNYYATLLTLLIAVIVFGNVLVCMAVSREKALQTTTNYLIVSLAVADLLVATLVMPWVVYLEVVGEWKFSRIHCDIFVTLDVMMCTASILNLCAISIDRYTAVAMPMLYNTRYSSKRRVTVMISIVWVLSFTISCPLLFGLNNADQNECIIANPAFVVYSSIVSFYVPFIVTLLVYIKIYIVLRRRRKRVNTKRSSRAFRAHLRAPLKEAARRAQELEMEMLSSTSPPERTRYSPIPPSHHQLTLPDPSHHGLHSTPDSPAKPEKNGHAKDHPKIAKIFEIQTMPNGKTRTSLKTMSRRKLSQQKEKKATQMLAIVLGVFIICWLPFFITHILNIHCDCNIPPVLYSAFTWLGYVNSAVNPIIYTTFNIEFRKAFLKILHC
Sequence of nAChR(a4/b2) (P43681 29-627 limits assumed): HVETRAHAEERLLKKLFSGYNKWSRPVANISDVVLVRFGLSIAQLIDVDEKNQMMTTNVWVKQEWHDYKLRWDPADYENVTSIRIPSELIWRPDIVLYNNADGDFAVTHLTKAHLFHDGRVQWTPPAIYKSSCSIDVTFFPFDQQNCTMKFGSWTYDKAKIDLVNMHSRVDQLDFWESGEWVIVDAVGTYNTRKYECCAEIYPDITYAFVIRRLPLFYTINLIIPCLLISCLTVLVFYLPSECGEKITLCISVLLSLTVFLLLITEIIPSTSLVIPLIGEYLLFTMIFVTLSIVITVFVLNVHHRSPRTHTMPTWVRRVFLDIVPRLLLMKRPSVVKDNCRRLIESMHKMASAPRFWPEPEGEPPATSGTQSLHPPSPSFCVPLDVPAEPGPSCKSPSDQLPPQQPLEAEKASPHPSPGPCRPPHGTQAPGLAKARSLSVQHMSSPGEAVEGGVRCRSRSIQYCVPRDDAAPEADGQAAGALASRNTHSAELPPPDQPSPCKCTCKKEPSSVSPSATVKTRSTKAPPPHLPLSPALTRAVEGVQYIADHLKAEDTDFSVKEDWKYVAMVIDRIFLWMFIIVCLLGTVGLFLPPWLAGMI
Sequence of nAChR(a4/b2) (P17787 26-502): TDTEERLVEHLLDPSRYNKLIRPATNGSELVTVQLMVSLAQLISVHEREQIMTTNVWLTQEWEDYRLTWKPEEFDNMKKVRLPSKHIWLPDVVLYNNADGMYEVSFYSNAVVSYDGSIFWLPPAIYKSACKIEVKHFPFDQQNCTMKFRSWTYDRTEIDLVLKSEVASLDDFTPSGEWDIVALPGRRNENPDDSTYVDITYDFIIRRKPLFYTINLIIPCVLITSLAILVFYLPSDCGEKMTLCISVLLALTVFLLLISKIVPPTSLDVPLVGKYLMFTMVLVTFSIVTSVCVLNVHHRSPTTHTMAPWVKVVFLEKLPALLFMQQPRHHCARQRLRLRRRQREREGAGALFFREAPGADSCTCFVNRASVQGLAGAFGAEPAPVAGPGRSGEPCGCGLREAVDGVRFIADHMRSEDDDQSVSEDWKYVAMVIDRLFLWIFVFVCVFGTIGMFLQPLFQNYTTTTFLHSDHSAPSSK
Sequence of CHRM3 (P20309 whole entry): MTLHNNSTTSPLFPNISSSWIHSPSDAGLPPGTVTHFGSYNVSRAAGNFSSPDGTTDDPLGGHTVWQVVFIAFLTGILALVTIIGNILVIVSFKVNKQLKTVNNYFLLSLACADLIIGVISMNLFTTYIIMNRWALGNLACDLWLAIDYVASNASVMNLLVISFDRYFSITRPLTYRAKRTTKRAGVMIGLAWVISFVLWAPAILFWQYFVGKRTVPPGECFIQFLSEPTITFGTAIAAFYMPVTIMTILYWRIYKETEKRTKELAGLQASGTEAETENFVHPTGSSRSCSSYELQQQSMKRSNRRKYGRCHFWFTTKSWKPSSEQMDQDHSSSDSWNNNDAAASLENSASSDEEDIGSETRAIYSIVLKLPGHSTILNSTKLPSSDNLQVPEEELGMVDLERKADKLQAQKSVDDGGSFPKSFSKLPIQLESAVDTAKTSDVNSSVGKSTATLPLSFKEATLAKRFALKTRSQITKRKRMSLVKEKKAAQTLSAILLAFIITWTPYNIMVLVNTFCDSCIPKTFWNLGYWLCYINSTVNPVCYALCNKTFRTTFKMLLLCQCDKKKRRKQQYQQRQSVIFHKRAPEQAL
Sequence of ADRB2 (P07550 whole entry): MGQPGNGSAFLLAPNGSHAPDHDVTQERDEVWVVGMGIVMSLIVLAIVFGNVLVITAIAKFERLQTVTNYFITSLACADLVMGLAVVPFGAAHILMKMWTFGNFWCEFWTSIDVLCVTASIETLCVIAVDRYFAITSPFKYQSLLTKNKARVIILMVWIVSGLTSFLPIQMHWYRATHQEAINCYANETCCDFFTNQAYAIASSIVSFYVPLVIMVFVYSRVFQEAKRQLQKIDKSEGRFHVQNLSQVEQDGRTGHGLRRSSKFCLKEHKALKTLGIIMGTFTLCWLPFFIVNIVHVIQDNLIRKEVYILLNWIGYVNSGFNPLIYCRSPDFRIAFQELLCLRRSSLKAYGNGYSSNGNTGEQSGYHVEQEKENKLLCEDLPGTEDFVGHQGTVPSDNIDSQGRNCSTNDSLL
Sequence of OPRK1 (P41145 whole entry): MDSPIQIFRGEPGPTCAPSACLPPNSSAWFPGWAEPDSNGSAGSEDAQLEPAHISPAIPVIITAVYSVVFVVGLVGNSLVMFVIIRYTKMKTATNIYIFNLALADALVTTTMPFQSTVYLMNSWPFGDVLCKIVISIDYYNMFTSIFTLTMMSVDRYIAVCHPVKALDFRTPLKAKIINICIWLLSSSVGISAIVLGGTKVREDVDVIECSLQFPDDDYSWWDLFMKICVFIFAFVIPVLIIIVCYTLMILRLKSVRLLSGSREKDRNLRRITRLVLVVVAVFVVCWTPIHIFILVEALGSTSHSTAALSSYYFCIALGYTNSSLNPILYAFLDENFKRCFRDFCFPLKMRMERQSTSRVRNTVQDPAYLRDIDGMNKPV
Sequence of CNR1 (P21554 whole entry): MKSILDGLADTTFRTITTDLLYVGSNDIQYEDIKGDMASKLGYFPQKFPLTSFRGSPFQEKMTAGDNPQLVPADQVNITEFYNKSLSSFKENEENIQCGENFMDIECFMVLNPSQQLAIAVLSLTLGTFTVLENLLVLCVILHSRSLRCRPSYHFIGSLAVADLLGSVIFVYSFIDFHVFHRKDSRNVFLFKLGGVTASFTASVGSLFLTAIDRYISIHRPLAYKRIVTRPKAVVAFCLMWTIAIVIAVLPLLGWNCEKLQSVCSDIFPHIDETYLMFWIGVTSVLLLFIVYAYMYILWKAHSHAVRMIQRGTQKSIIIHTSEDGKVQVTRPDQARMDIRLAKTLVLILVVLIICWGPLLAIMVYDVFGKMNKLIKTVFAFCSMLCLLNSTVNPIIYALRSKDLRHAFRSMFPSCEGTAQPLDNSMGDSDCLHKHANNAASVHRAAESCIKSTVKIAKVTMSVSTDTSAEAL
Sequence of HTR2A (P28223 whole entry): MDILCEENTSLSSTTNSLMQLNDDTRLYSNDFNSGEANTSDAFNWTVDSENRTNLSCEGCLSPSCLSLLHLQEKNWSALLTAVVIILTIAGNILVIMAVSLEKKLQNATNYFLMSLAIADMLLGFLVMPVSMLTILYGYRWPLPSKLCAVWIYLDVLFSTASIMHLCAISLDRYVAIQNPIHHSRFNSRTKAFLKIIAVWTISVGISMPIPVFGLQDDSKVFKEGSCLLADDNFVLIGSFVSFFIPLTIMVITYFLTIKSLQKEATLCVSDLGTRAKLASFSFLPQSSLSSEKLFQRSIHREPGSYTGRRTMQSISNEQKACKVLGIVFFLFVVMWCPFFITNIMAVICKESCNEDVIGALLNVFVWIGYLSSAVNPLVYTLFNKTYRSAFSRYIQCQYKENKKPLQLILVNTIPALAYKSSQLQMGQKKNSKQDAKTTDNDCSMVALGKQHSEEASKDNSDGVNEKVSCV
Sequence of AVPR1A (P37288 whole entry): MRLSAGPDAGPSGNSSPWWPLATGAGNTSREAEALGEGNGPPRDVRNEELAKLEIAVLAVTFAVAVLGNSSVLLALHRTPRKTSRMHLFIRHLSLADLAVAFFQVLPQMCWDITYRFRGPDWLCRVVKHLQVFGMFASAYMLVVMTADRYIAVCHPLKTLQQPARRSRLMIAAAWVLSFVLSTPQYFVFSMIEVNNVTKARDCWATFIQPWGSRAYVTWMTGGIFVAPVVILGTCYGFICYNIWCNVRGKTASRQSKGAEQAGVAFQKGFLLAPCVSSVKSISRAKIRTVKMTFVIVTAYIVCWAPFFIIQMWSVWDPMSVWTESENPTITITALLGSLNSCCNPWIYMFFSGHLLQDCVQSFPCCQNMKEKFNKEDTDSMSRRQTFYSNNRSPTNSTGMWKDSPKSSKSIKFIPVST

Cn1c(=O)c2c(c3cc(Nc4ccnc(F)c4Cl)ccc31)N[C@@H](C1CC1)C(F)(F)CO2 [compound 17, (S)-10-((3-chloro-2-fluoropyridin-4-yl)amino)-2-cyclopropyl-3,3-difluoro-7-methyl-1,2,3,4-tetrahydro-[1,4]oxazepino[2,3-c]quinolin-6(7H)-one]
EC50 [1]: > 10 µM | Emax ([1]; CNR1, cAMP, Agonist, read-out: Max Response): 27.3% | EC50 [2]: > 10 µM | Emax ([2]; nAChR(a4/b2), Ion Channel, Opener, read-out: Max Response): 3.37% | Emax ([3]; read-out: Max Response): 0% | IC50 ([3]; read-out: RC50 (IC50)): > 10 µM | EC50 [4]: > 10 µM | Emax ([4]; CHRM3, Calcium Flux, Agonist, read-out: Max Response): 0% | Emax [5]: 0% | IC50 [5]: > 10 µM | Emax ([6]; read-out: Max Response): 0% | EC50 ([6]; read-out: RC50 (EC50)): > 10 µM | Emax ([7]; read-out: Max Response): 0% | EC50 ([7]; read-out: RC50 (EC50)): > 10 µM | EC50 [8]: > 10 µM | Emax ([8]; HTR2A, Calcium Flux, Agonist, read-out: Max Response): 2.33% | IC50 [9]: > 10 µM | Emax ([9]; NET, Transporter, Blocker, read-out: Max Response): 0% | EC50 [10]: > 10 µM | Emax ([10]; OPRD1, cAMP, Agonist, read-out: Max Response): 23.6% | EC50 [11]: > 10 µM | Emax ([11]; OPRK1, cAMP, Agonist, read-out: Max Response): 21.1% | kinase panel (468) outcome [12]: selective activity and minimal off-target interactions | Percent Control ([12]; EGFR(L747-E749del, A750P)): 93% | Percent Control ([12]; EGFR(L747-S752del, P753S)): 67% | Percent Control ([12]; EGFR(L747-T751del,Sins)): 100% | Percent Control ([12]; FLT3(ITD)): 98% | Percent Control ([12]; FLT3(ITD,D835V)): 100% | Percent Control ([12]; FLT3(ITD,F691L)): 100% | Percent Control [13]: 84% | Emax ([14]; read-out: Max Response): 0.06% | EC50 ([14]; read-out: RC50 (EC50)): > 10 µM | Emax ([15]; read-out: Max Response): 1.07% | EC50 ([15]; read-out: RC50 (EC50)): > 10 µM | IC50 [16]: > 10 µM | Emax ([16]; HTR2B, Calcium Flux, Antagonist, read-out: Max Response): 0% | IC50 [17]: > 10 µM | Emax ([17]; HTR1B, cAMP, Antagonist, read-out: Max Response): 0% | IC50 [18]: > 10 µM | Emax ([18]; NAV1.5, Ion Channel, Blocker, read-out: Max Response): 2.06% | IC50 [19]: > 10 µM | Emax ([19]; OPRD1, cAMP, Antagonist, read-out: Max Response): 46% | IC50 [20]: > 10 µM | Emax ([20]; DAT, Transporter, Blocker, read-out: Max Response): 0% | EC50 [21]: 3.5 µM | Hill ([21]; DRD2S, cAMP, Agonist): 1.25 | Emax ([21]; DRD2S, cAMP, Agonist, read-out: Max Response): 72.1%
